Measured values from ChEMBL document CHEMBL2406972, “Synthesis and antitumor activities of novel dibenzo[b,d]furan-imidazole hybrid compounds” (Eur J Med Chem, 2013).

Legend:
[1] = tested on: SMMC-7721; experiment: Cell cycle arrest in human SMMC7721 cells assessed as accumulation at G2/M phase at 6 uM after 24 hrs using PI staining by flow cytometry (reference value: 12.84%); assay type: functional
[2] = tested on: SMMC-7721; experiment: Cell cycle arrest in human SMMC7721 cells assessed as accumulation at G1 phase after 24 hrs using PI staining by flow cytometry; assay type: functional, cell-based
[3] = tested on: SMMC-7721; experiment: Cell cycle arrest in human SMMC7721 cells assessed as accumulation at G2/M phase at 3 uM after 24 hrs using PI staining by flow cytometry (reference value: 12.84%); assay type: functional
[4] = tested on: SMMC-7721; experiment: Cell cycle arrest in human SMMC7721 cells assessed as accumulation at S phase at 6 uM after 24 hrs using PI staining by flow cytometry (reference value: 24.41%); assay type: functional
[5] = tested on: SMMC-7721; experiment: Cell cycle arrest in human SMMC7721 cells assessed as accumulation at S phase at 3 uM after 24 hrs using PI staining by flow cytometry (reference value: 24.41%); assay type: functional
[6] = tested on: SMMC-7721; experiment: Cell cycle arrest in human SMMC7721 cells assessed as accumulation at G1 phase at 6 uM after 24 hrs using PI staining by flow cytometry (reference value: 60.29%); assay type: functional
[7] = tested on: SMMC-7721; experiment: Cell cycle arrest in human SMMC7721 cells assessed as accumulation at G1 phase at 3 uM after 24 hrs using PI staining by flow cytometry (reference value: 60.29%); assay type: functional
[8] = tested on: SMMC-7721; experiment: Induction of apoptosis in human SMMC7721 cells at 9 uM after 48 hrs using by V-FITC/PI double-staining assay (reference value: 2.73 +/- 0.69%); assay type: functional
[9] = tested on: SMMC-7721; experiment: Induction of apoptosis in human SMMC7721 cells at 3 uM after 48 hrs using by V-FITC/PI double-staining assay (reference value: 2.73 +/- 0.69%); assay type: functional
[10] = tested on: SMMC-7721; experiment: Induction of apoptosis in human SMMC7721 cells at 6 uM after 48 hrs using by V-FITC/PI double-staining assay (reference value: 2.73 +/- 0.69%); assay type: functional
[11] = tested on: SMMC-7721; experiment: Induction of apoptosis in human SMMC7721 cells assessed as early apoptotic cells at 9 uM after 48 hrs using by V-FITC/PI double-staining assay (reference value: 1.76%); assay type: functional
[12] = tested on: SMMC-7721; experiment: Induction of apoptosis in human SMMC7721 cells assessed as late apoptotic cells at 9 uM after 48 hrs using by V-FITC/PI double-staining assay (reference value: 0.481%); assay type: functional
[13] = tested on: SMMC-7721; experiment: Induction of apoptosis in human SMMC7721 cells assessed as viable cells at 9 uM after 48 hrs using by V-FITC/PI double-staining assay (reference value: 92.9%); assay type: functional; conditions: SMMC-7721, 48 h, read-out: Activity
[14] = tested on: SMMC-7721; experiment: Induction of apoptosis in human SMMC7721 cells assessed as necrotic cells at 9 uM after 48 hrs using by V-FITC/PI double-staining assay (reference value: 4.90%); assay type: functional
[15] = tested on: SMMC-7721; experiment: Induction of apoptosis in human SMMC7721 cells assessed as early apoptotic cells at 6 uM after 48 hrs using by V-FITC/PI double-staining assay (reference value: 1.76%); assay type: functional
[16] = tested on: SMMC-7721; experiment: Induction of apoptosis in human SMMC7721 cells assessed as late apoptotic cells at 6 uM after 48 hrs using by V-FITC/PI double-staining assay (reference value: 0.481%); assay type: functional
[17] = tested on: SMMC-7721; experiment: Induction of apoptosis in human SMMC7721 cells assessed as viable cells at 6 uM after 48 hrs using by V-FITC/PI double-staining assay (reference value: 92.9%); assay type: functional; conditions: SMMC-7721, 48 h, read-out: Activity
[18] = tested on: SMMC-7721; experiment: Induction of apoptosis in human SMMC7721 cells assessed as necrotic cells at 6 uM after 48 hrs using by V-FITC/PI double-staining assay (reference value: 4.90%); assay type: functional
[19] = tested on: SMMC-7721; experiment: Induction of apoptosis in human SMMC7721 cells assessed as early apoptotic cells at 3 uM after 48 hrs using by V-FITC/PI double-staining assay (reference value: 1.76%); assay type: functional
[20] = tested on: SMMC-7721; experiment: Induction of apoptosis in human SMMC7721 cells assessed as late apoptotic cells at 3 uM after 48 hrs using by V-FITC/PI double-staining assay (reference value: 0.481%); assay type: functional
[21] = tested on: SMMC-7721; experiment: Induction of apoptosis in human SMMC7721 cells assessed as viable cells at 3 uM after 48 hrs using by V-FITC/PI double-staining assay (reference value: 92.9%); assay type: functional; conditions: SMMC-7721, 48 h, read-out: Activity
[22] = tested on: SMMC-7721; experiment: Induction of apoptosis in human SMMC7721 cells assessed as necrotic cells at 3 uM after 48 hrs using by V-FITC/PI double-staining assay (reference value: 4.90%); assay type: functional
[23] = tested on: SMMC-7721; experiment: Cytotoxicity against human SMMC7721 cells after 48 hrs by MTT assay; assay type: functional, cell-based; conditions: SMMC-7721, 48 h
[24] = tested on: SW480; experiment: Cytotoxicity against human SW480 cells after 48 hrs by MTT assay; assay type: functional, cell-based; conditions: SW480, 48 h
[25] = tested on: A549; experiment: Cytotoxicity against human A549 cells after 48 hrs by MTT assay; assay type: functional, cell-based; conditions: A549, 48 h
[26] = tested on: MCF7; experiment: Cytotoxicity against human MCF7 cells after 48 hrs by MTT assay; assay type: functional, cell-based; conditions: MCF7, 48 h
[27] = tested on: HL-60; experiment: Cytotoxicity against human HL60 cells after 48 hrs by MTT assay; assay type: functional, cell-based; conditions: HL-60, 48 h

O=C(C[n+]1cn(C(c2ccccc2)c2ccc3oc4ccccc4c3c2)c2ccccc21)c1ccc2ccccc2c1.[Br-] (configuration not stated)
Activity [1]: 0.75%
Activity [2]: Dose-dependent effect
Activity [3]: 4.96%
Activity [4]: 17.8%
Activity [5]: 26.8%
Activity [6]: 80.14%
Activity [7]: 67.74%
Activity [8]: 50.8%
Activity [9]: 7.6%
Activity [10]: 43.6%
Activity [11]: 11.9%
Activity [12]: 40.1%
viability at 9 µM [13]: 39.2%
Activity [14]: 8.76%
Activity [15]: 28.6%
Activity [16]: 13.8%
viability at 6 µM [17]: 53.4%
Activity [18]: 4.21%
Activity [19]: 3.46%
Activity [20]: 5.37%
viability at 3 µM [21]: 90.1%
Activity [22]: 1.06%
IC50 [23]: 2.86 µM
IC50 [24]: 3.59 µM
IC50 [25]: 3.54 µM
IC50 [26]: 1040 nM
IC50 [27]: 930 nM

Cc1n(C(c2ccccc2)c2ccc3oc4ccccc4c3c2)cc[n+]1CC(=O)c1ccc2ccccc2c1 (configuration not stated)
IC50 [23]: 2.57 µM
IC50 [24]: 2.62 µM
IC50 [25]: 3.78 µM
IC50 [26]: 2310 nM
IC50 [27]: 980 nM

O=C(C[n+]1cn(C(c2ccccc2)c2ccc3oc4ccccc4c3c2)c2ccccc21)c1ccccc1 (configuration not stated)
IC50 [23]: 4.61 µM
IC50 [24]: 3.54 µM
IC50 [25]: 13.6 µM
IC50 [26]: 2500 nM
IC50 [27]: 2300 nM

O=C(C[n+]1ccn(C(c2ccccc2)c2ccc3oc4ccccc4c3c2)c1)c1ccc(Br)cc1 (configuration not stated)
IC50 [23]: 10.8 µM
IC50 [24]: 2.11 µM
IC50 [25]: 7.7 µM
IC50 [26]: 3320 nM
IC50 [27]: 2130 nM

O=C(C[n+]1cn(C(c2ccccc2)c2ccc3oc4ccccc4c3c2)c2ccccc21)c1ccc(F)cc1 (configuration not stated)
IC50 [23]: 3.57 µM
IC50 [24]: 3.6 µM
IC50 [25]: 12.1 µM
IC50 [26]: 1870 nM
IC50 [27]: 2180 nM

CC(c1ccc2oc3ccccc3c2c1)n1cc[n+](CC(=O)c2ccc(O)cc2)c1 (configuration not stated)
IC50 [23]: > 40 µM
IC50 [24]: > 40 µM
IC50 [25]: > 40 µM
IC50 [26]: > 40000 nM
IC50 [27]: > 40000 nM

O=C(C[n+]1ccn(C(c2ccccc2)c2ccc3oc4ccccc4c3c2)c1)c1ccccc1 (configuration not stated)
IC50 [23]: 11.4 µM
IC50 [24]: 9.05 µM
IC50 [25]: 17.7 µM
IC50 [26]: 6290 nM
IC50 [27]: 2140 nM
